Data taken from patent publication US20260224527A1, “USES OF ANTI-PSYCHOTIC AGENTS” (LB PHARMACEUTICALS INC., priority 2023, published 2026).

Assays:
PCP-treated rats [1] = assay: Novel Object Recognition (NOR) assay in scPCP model; assay type: in vivo, rat; details: for effect on Discrimination Index (DI): 3 hr post-dose
Procedure: (§1) Differences in discrimination index ((time spent exploring novel−time spent exploring familiar)/total exploration time) are depicted. scPCP rats treated with risperidone (Risp) served as a positive control. […] Rats treated with cariprazine (Cari) served as a positive control.
Efficacy of LB-102, LB-103, and LB-104 at different doses was evaluated in rats in a Novel Object Recognition (NOR) assay, a well-established model recapitulating cognitive and negative aspects of the PANSS scale of schizophrenia. In this assay, animals were treated for several weeks with a low dose of phencyclidine (PCP) to impair the ability of the rat to discern between novel and familiar objects. Typically rats, like humans, would spend more time exploring a novel object than a familiar one.
In this NOR study the efficacies of LB-102, LB-103, and LB-104 were compared to known antipsychotic risperidone for its ability to restore normal differentiation between novel and familiar object exploration in PCP-treated rats. Cognitive measurements were taken at 3 hr post-dose for LB-102, LB-103, and LB-104 and 30 min for risperidone. The endpoint of this study was the Discrimination Index (DI), a normalized ratio of time spent exploring a novel object compared to a familiar one.

PCP-treated rats [2] = assay: Social interaction (sniffing index, SI) assay in scPCP model; assay type: in vivo, rat
Procedure: as §1
The sniffing component of the SI assay was carried out as described in (J. C. Neil, S. Barnes, S. Cook, B. Grayson, N. F. Iris, S. L. McLean, S. Snigdha, L. Rajagopa, and M. K. Harte, “Animal models of cognitive dysfunction and negative symptoms of schizophrenia: focus on NMDA receptor antagonism”, Pharmacol. Ther., 2010, 128, 419-423) in groups of 12 rats.

D4 receptor subtype = biological target: T1, D4 receptor subtype (Homo sapiens, UniProt P21917); details: cited from earlier work
T1 sequence (P21917 1-419): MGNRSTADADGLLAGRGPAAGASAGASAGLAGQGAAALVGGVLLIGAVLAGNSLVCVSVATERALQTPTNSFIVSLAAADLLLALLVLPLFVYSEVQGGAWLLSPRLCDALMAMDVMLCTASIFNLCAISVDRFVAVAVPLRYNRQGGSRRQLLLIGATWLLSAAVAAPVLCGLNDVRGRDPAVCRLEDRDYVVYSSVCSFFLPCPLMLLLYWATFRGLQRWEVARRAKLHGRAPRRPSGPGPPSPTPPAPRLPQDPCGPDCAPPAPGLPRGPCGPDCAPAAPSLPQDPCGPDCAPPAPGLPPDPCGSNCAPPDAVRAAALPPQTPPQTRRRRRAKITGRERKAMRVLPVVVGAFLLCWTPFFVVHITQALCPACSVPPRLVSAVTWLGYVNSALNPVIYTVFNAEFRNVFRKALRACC

5-HT2a receptor = 5-HT2a receptor (Homo sapiens, UniProt P28223); details: compared to other antipsychotics; cited from earlier work
[3] = tested on: alpha-adrenergic receptor subtypes; details: cited from earlier work
[4] = tested on: serotonin receptor subtypes; details: cited from earlier work
[5] = tested on: histamine receptor subtypes; details: cited from earlier work
D5 receptor subtype = D5 receptor subtype (Homo sapiens, UniProt P21918); details: cited from earlier work
muscarinic receptors = details: cited from earlier work
sigma sites = details: cited from earlier work
D1 receptor subtype = D1 receptor subtype (Homo sapiens, UniProt P21728); details: cited from earlier work
[6] = 2014 study, rank among 30 psychiatric drugs; cited from earlier work

Chain of D1 receptor subtype (P21728 whole entry): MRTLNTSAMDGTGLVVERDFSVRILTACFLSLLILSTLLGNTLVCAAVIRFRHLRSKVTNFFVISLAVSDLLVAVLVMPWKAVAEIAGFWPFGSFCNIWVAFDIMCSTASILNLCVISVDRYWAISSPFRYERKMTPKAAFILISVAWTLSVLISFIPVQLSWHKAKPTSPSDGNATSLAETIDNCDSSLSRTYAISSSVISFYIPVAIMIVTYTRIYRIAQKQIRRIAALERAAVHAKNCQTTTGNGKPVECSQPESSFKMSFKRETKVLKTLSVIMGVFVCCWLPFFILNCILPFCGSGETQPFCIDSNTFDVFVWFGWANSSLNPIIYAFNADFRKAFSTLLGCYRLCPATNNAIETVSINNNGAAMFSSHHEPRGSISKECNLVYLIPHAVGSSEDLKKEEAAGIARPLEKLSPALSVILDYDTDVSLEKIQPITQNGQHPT
Chain of 5-HT2a receptor (P28223 whole entry): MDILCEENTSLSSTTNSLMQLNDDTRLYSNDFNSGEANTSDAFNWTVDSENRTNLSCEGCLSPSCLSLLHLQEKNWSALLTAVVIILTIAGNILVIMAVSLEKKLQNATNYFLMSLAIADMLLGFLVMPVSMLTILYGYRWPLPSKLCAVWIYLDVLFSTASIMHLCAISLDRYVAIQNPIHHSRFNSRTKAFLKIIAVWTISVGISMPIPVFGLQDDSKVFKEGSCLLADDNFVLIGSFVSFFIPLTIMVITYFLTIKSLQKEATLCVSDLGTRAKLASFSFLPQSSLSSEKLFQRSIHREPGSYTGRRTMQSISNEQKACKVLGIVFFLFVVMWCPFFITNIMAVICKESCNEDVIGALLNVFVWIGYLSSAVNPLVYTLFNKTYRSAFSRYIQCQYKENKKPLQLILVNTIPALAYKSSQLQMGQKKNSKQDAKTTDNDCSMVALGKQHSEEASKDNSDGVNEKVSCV
Chain of D5 receptor subtype (P21918 whole entry): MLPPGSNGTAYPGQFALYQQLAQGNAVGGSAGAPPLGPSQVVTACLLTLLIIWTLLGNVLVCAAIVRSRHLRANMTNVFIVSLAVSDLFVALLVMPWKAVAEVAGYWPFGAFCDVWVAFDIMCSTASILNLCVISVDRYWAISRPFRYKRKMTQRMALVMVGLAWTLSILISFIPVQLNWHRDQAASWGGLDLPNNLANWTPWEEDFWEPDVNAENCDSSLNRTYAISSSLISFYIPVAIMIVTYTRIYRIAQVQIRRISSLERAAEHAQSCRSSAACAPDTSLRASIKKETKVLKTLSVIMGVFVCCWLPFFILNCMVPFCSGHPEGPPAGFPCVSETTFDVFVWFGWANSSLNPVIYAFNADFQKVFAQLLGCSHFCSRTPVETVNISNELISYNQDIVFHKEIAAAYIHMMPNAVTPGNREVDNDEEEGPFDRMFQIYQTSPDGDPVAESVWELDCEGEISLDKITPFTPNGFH

Compound | NOR result compared to LB-104 (PCP-treated rats [1]) | effect on Discrimination Index (DI) (PCP-treated rats [1]; 15 mg/kg) | effect on Discrimination Index (DI) (PCP-treated rats [1]; 45 mg/kg) | effect on sniffing index (social interaction) (PCP-treated rats [2]; 5 mg (printed)) | effect on sniffing index (social interaction) (PCP-treated rats [2]; 45 mg/kg) | affinity (D4 receptor subtype) | activity at the 5-HT2a receptor (5-HT2a receptor) | affinity [3] | affinity [4] | affinity [5] | affinity (D5 receptor subtype) | affinity (muscarinic receptors) | affinity (sigma sites) | affinity (D1 receptor subtype) | passive diffusion across a PAMPA membrane (Pe) [6]
CCN1CCCC1CNC(=O)c1cc(S(=O)(=O)CC)c(NC)cc1OC (racemic) [LB-102] | comparable results | significant improvement | significant improvement | significant effect | significant effect |  |  |  |  |  |  |  |  |  | 
CCN1CCCC1CNC(=O)c1cc(S(=O)(=O)CC)c(N)cc1OC (stereo not drawn) [Amisulpride, 4-amino-N-(((1-ethyl-2-pyrrolidinyl)methyl)-5-(ethylsulfonyl))-2-methoxybenzamide] |  |  |  |  |  | without any affinity | not noted to have any activity | low affinity | low affinity | low affinity | without any affinity | low affinity | low affinity | without any affinity | lowest of 30 psychiatric drugs tested
CCN1CCC[C@@H]1CNC(=O)c1cc(S(=O)(=O)CC)c(NC)cc1OC [LB-104] |  | significant improvement | significant improvement |  | significant effect |  |  |  |  |  |  |  |  |  | 
